Earlier results on one compound are cited in patent US20030175234A1, “Use of polyphenols to treat skin conditions” (priority 2002, published 2003).

Data set [1] has as its system Ultraviolet-B (UV-B) light ray induced leukocyte infiltration. The settings on record: mouse skin.
For data set [2] the test system is unchanged. The settings on record: human skin.

Like-named read-outs stand apart in the source and are kept apart here.

For the compound `O=C(O[C@@H]1Cc2c(O)cc(O)cc2O[C@@H]1c1cc(O)c(O)c(O)c1)c1cc(O)c(O)c(O)c1` [epigallocatechin gallate], the “block of UV-B induced leukocyte infiltration” value in data set [1] and in data set [2] was “can block” each time.
